Four compounds from patent publication US12359259B2, “Biomarkers for predicting prostate cancer progression” (ACADEMIA SINICA, priority 2018, dated 2025) can be followed below.

Holding throughout (format): cell-based
One assay has as its system MYC and C1GALT1. As to the kind of experiment: Immunoblots of MYC and C1GALT1 levels under inhibitor treatment. Particulars: 22Rv1-M4 and galectin-4-expressing 22Rv1 and LNCaP cells; 24 h. From the text:
Data are expressed as mean±SEM. *P<0.05, **P<0.01, ***P<0.001 (unpaired t-test, two-tail).
A general note: In western blotting, separated proteins are transferred to a membrane and probed.

Assay [1] has as its system LNCaP-tetO-Gal4 and 22Rv1-tetO-Gal4 cells. The experiment in a line: Lectin binding assay (flow cytometry) of cell surface glycans after glycosylation inhibitor treatment. On the procedure: FIG. 8A to FIG. 8C show the characterization of glycophenotype in prostate cancer cells. FIG. 8A and FIG. 8B show lectin binding assay of LNCaP-tetO-Gal4 (A) and 22Rv1-tetO-Gal4 (B) cells treated with 3 μM Swainsonine or 4 mM Benzyl-α-GalNAc for 2 day following galectin-4 induction by doxycycline. […] Below, the mean fluorescence intensity (MFI) values from triplicates. Data are expressed as mean±SEM. *P<0.05, **P<0.01, ***P<0.001 (unpaired t-test, two-tail).
To profile cell surface glycans, cells were detached by Accutase (Innovative Cell Technologies, San Diego, CA) treatment, washed with PBS for three times, and suspended in Carbo-Free Blocking Solution (VECTOR, Burlingame, CA). Cells were incubated with biotin-conjugated lectins, PHA-L (2 μg/mL), PNA (10 μg/mL), MALII (5 μg/mL), Jacalin (5 μg/mL, VECTOR), and galectin-4 (5 μg/mL), or BSA as a control followed by APC-labeled streptavidin. After incubation for 30 min on ice, cells were analyzed on an Accuri C6 flow cytometer (BD Biosciences, Taiwan). Galectin-4 (R&D Systems, Minneapolis, MN) and BSA were biotinylated using Lightning-Link Rapid Conjugation System (Innova Biosciences, Cambridge, UK) following the manufacturer's instructions.
A general note: A flow cytometer gives signals particle by particle.

The subject of another assay is SOX9 expression. The experiment in a line: Immunoblots of SOX9 expression in 22Rv1-M4 cells. Conditions: 3 μM Swainsonine or 4 mM Benzyl-α-GalNAc for 2 days.
The test system of assay [2] is HER2/3 phosphorylation, AR, and PSA expression. The experiment in a line: Immunoblots of HER2/3 phosphorylation, AR and PSA expression after galectin-4 induction.
For a further assay, the system named is LNCaP-CR4 cells. The experiment in a line: Colony-formation assay under enzalutamide treatment. Particulars: LNCaP-CR4 vs LNCaP; 10 days.
Where [3] appears, read: 4 mM Benzyl-α-GalNAc for 2 day, PCa cells.

Take `N#CC(=C(N)Sc1ccc(N)cc1)c1ccccc1C(F)(F)F` [MEK1/2 inhibitor]: the “induction of MYC and C1GALT1 compared to vehicle treatment” value in the assay with MYC and C1GALT1 is on record as “blocked”.
With `CC(=O)N[C@H]1[C@@H](OCc2ccccc2)O[C@H](CO)[C@H](O)[C@@H]1O` [benzyl-α-GalNAc], in assay [1] (setting [3]), the “binding of treated cells to MALII” value is given as “reduced” and the “binding of treated cells to PNA” value is “increased”. The “biosynthesis of α2,3-sialyl-T antigen” value in assay [1] (PCa cells) is “significantly impaired”. In addition, the SOX9 expression entry in the assay on SOX9 expression is reported as “significantly inhibited”. Besides, the “galectin-4-mediated activation of HER2/3 and AR signaling” value in assay [2] (4 mM Benzyl-α-GalNAc for 2 day, galectin-4 expressing LNCaP and 22Rv1 cells) is recorded as “blocked”. The galectin-4 activity result in assay [2] (PCa cells) is on record as “suppressed”.
For `CNC(=O)c1ccc(N2C(=S)N(c3ccc(C#N)c(C(F)(F)F)c3)C(=O)C2(C)C)cc1F` [enzalutamide], the “clonogenic growth of LNCaP-CR4 cells under enzalutamide” value in the assay with LNCaP-CR4 cells is recorded as “resistance”.
Consider `O[C@H]1[C@H]2[C@H](O)CCCN2C[C@H]1O` [swainsonine], for which the “PHA-L staining for N-glycans” value in assay [1] (3 μM Swainsonine for 2 day following doxycycline-mediated galectin-4 induction, LNCaP and 22Rv1 cells) is “decreased”. Further, the SOX9 expression entry in the assay on SOX9 expression is listed as “did not affect”. The “HER2/3 phosphorylation and induction of AR and PSA protein expression” value in assay [2] (3 μM Swainsonine for 2 day, galectin-4 expressing LNCaP and 22Rv1 cells) is recorded as “did not affect”.
